Data published in ChEMBL document CHEMBL1127534, “2-Alkynyl derivatives of adenosine-5'-N-ethyluronamide: selective A2 adenosine receptor agonists with potent inhibitory activity on platelet aggregation” (J Med Chem, 1994).

Experiments:
Adenosine receptor A1 [1] = target: T1, Adenosine receptor A1 (Rattus norvegicus, UniProt P25099); test: Negative chronotropic activity via A1 Adenosine receptor was tested in spontaneously beating rat atria; format: functional
T1 sequence (P25099 whole entry): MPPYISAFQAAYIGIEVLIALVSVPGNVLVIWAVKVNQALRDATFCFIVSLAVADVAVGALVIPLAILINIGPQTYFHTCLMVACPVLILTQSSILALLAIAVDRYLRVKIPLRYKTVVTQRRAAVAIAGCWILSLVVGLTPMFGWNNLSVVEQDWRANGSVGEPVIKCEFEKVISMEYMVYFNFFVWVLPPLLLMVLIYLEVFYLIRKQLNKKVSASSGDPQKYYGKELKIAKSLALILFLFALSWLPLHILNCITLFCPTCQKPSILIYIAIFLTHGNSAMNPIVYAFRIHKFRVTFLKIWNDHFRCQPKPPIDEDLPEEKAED

[2] = Hydrophobicity index (k') (RP-HPLC); format: ADME
Adenosine A2 receptor [3] = target: T2, Adenosine A2 receptor (Rattus norvegicus, UniProt P29276+P30543)
Description: Negative chronotropic activity via A2 Adenosine receptor was tested monitoring vasodilation in rat aorta

Adenosine A2 receptor [4] = target: T2, Adenosine A2 receptor; remark: listed apart in the source
Description: Affinity for the adenosine A2 receptor was evaluated in a competition assay in rat striatum using [3H]-CGS- 21680 as radioligand

Adenosine receptor A1 [5] = target: T1, Adenosine receptor A1; test: biochemical
Description: Affinity for adenosine A1 receptor assayed in a competition assay in rat brain using [3H]-CHA as radioligand

Adenosine receptor A1 [6] = target: T1, Adenosine receptor A1; test: Negative chronotropic activity for A1 Adenosine receptor in spontaneously beating rat atria; format: functional
Oryctolagus cuniculus = species on record: Oryctolagus cuniculus; test: Antiaggregatory effect was evaluated on rabbit platelet aggregation induced by ADP.; format: functional
Adenosine A2 receptor [7] = target: T2, Adenosine A2 receptor; test: Vasorelaxant activity for A2 Adenosine receptor as vasodilation in rat aorta
Adenosine A2 receptor [8] = target: T2, Adenosine A2 receptor; test: Affinity for A2 Adenosine receptor in rat striatum using [3H]-CGS- 21680; format: tissue-based
Adenosine receptor A1 [9] = target: T1, Adenosine receptor A1; test: Affinity for A1 Adenosine receptor in rat brain using [3H]CHA; format: tissue-based

| SMILES | EC50 (Adenosine receptor A1 [1]) | k' [2] | EC50 (Adenosine A2 receptor [3]) | Ki (Adenosine A2 receptor [4]) | Ki (Adenosine receptor A1 [5]) | EC50 (Adenosine receptor A1 [6]) | Ratio (Oryctolagus cuniculus) | EC50 (Adenosine A2 receptor [7]) | Ki (Adenosine A2 receptor [8]) | Ki (Adenosine receptor A1 [9]) |
| --- | --- | --- | --- | --- | --- | --- | --- | --- | --- | --- |
| CCNC(=O)[C@H]1O[C@@H](n2cnc3c(N)nc(C#CCN(C)C)nc32)[C@H](O)[C@@H]1O | 0.332 µM | 0.37 | 0.14 µM | 0.0023 µM | 0.0279 µM | – | – | – | – | – |
| CCNC(=O)[C@H]1O[C@@H](n2cnc3c(N)nc(C#CCCCCO)nc32)[C@H](O)[C@@H]1O | > 10 µM | 0.35 | 0.391 µM | 0.0068 µM | 0.0421 µM | – | – | – | – | – |
| CCNC(=O)[C@H]1O[C@@H](n2cnc3c(N)nc(C#CC(O)c4ccccc4)nc32)[C@H](O)[C@@H]1O (stereo partly specified) | 0.11 µM | 0.82 | 0.123 µM | 0.0009 µM | 0.0025 µM | – | – | – | – | – |
| CCNC(=O)[C@H]1O[C@@H](n2cnc3c(N)nc(C#CCC(C)O)nc32)[C@H](O)[C@@H]1O (stereo partly specified) | 6.05 µM | 0.29 | 1.65 µM | 0.0564 µM | 0.0696 µM | – | – | – | – | – |
| CCNC(=O)[C@H]1O[C@@H](n2cnc3c(N)nc(C#CCCOC4CCCCO4)nc32)[C@H](O)[C@@H]1O (stereo partly specified) | – | 1.32 | – | 0.005 µM | 0.267 µM | > 10 µM | 0.3 | 0.115 µM | – | – |
| CCNC(=O)[C@H]1O[C@@H](n2cnc3c(N)nc(C#CC4(N)CCCCC4)nc32)[C@H](O)[C@@H]1O | – | 0.6 | – | 0.0394 µM | 0.398 µM | > 10 µM | 0.6 | 0.779 µM | – | – |
| CCNC(=O)[C@H]1O[C@@H](n2cnc3c(N)ncnc32)[C@H](O)[C@@H]1O [NECA] | – | 0.19 | – | – | – | – | – | – | – | – |
| OC[C@H]1O[C@@H](n2cnc3c(NC4CCCC4)nc(Cl)nc32)[C@H](O)[C@@H]1O | – | 2.76 | – | – | – | – | – | – | – | – |
| CCNC(=O)[C@H]1O[C@@H](n2cnc3c(N)nc(C#CCN)nc32)[C@H](O)[C@@H]1O | 0.73 µM | 0.15 | 0.564 µM | 0.0383 µM | 0.0486 µM | – | – | – | – | – |
| CCNC(=O)[C@H]1O[C@@H](n2cnc3c(N)nc(C#CC(C)(O)CC(C)C)nc32)[C@H](O)[C@@H]1O (stereo partly specified) | > 10 µM | 1.84 | 0.338 µM | 0.0005 µM | 0.003 µM | – | – | – | – | – |
| CCNC(=O)[C@H]1O[C@@H](n2cnc3c(N)nc(C#CC(C)(O)c4ccccc4)nc32)[C@H](O)[C@@H]1O (stereo partly specified) | 2.43 µM | 1.32 | 0.456 µM | 0.0017 µM | 0.0327 µM | – | – | – | – | – |
| CCNC(=O)[C@H]1O[C@@H](n2cnc3c(N)nc(C#CC4(O)CCCC4)nc32)[C@H](O)[C@@H]1O | – | 0.77 | – | 0.0006 µM | 0.004 µM | 0.475 µM | 5.3 | 0.159 µM | – | – |
| CCNC(=O)[C@H]1O[C@@H](n2cnc3c(N)nc(C#CC4=CCCCC4)nc32)[C@H](O)[C@@H]1O | – | 3.9 | – | 0.0613 µM | 3.3 µM | > 10 µM | 0.03 | 3.03 µM | – | – |
| CCCCC#Cc1nc(N)c2ncn([C@@H]3O[C@H](C(=O)NCC)[C@@H](O)[C@H]3O)c2n1 | > 10 µM | 2.57 | 0.596 µM | 0.0022 µM | 0.13 µM | – | – | – | – | – |
| CCNC(=O)[C@H]1O[C@@H](n2cnc3c(N)nc(C#CCO)nc32)[C@H](O)[C@@H]1O | 0.0842 µM | 0.17 | 0.367 µM | 0.0091 µM | 0.0141 µM | – | – | – | – | – |
| CCNC(=O)[C@H]1O[C@@H](n2cnc3c(N)nc(C#CCCCC#N)nc32)[C@H](O)[C@@H]1O | 2.37 µM | 0.32 | 0.111 µM | 0.0047 µM | 0.184 µM | – | – | – | – | – |
| CCNC(=O)[C@H]1O[C@@H](n2cnc3c(N)nc(C#CC(O)CC)nc32)[C@H](O)[C@@H]1O (stereo partly specified) | 0.153 µM | 0.42 | 0.0693 µM | – | – | – | – | – | 0.0124 µM | 0.0204 µM |
| CCNC(=O)[C@H]1O[C@@H](n2cnc3c(N)nc(C#CC(C)O)nc32)[C@H](O)[C@@H]1O (stereo partly specified) | 0.657 µM | 0.23 | 0.828 µM | 0.0076 µM | 0.0111 µM | – | – | – | – | – |
| CCNC(=O)[C@H]1O[C@@H](n2cnc3c(N)nc(C#CC4CCCCC4)nc32)[C@H](O)[C@@H]1O | > 10 µM | 4.54 | 0.329 µM | 0.0092 µM | 0.236 µM | – | – | – | – | – |
| C#Cc1nc(N)c2ncn([C@@H]3O[C@H](C(=O)NCC)[C@@H](O)[C@H]3O)c2n1 | 0.167 µM | 0.25 | 0.44 µM | 0.0578 µM | 0.0354 µM | – | – | – | – | – |
| CCNC(=O)[C@H]1O[C@@H](n2cnc3c(N)nc(C#CC(OCC)OCC)nc32)[C@H](O)[C@@H]1O | > 10 µM | 1.63 | 0.382 µM | 0.441 µM | 0.656 µM | – | – | – | – | – |
| CCNC(=O)[C@H]1O[C@@H](n2cnc3c(N)nc(C#CCCCO)nc32)[C@H](O)[C@@H]1O | > 10 µM | 0.22 | 0.3 µM | 0.0113 µM | 0.0999 µM | – | – | – | – | – |
| CCNC(=O)[C@H]1O[C@@H](n2cnc3c(N)nc(C#CCCCCl)nc32)[C@H](O)[C@@H]1O | 2.52 µM | 1.35 | 0.715 µM | 0.001 µM | 0.0379 µM | – | – | – | – | – |
| CCNC(=O)[C@H]1O[C@@H](n2cnc3c(N)nc(C#CCCO)nc32)[C@H](O)[C@@H]1O | > 10 µM | 0.2 | 0.0594 µM | 0.0108 µM | 0.0473 µM | – | – | – | – | – |
| C=C(C)C#Cc1nc(N)c2ncn([C@@H]3O[C@H](C(=O)NCC)[C@@H](O)[C@H]3O)c2n1 | > 10 µM | 1.27 | 1.2 µM | 0.0273 µM | 0.167 µM | – | – | – | – | – |
